The subject of one data set is CD4+ T cells. The data set is described as follows: in vitro T cell proliferation assay ([3H]thymidine incorporation) with T cells of immunized Balb/c mice. As to conditions: for proliferation of T cells from immunized mice: Balb/c (H-2d) mice immunized in footpad with 100 μg in complete Freund's adjuvant, lymph node CD4+ T cells restimulated in vitro with myoglobin or Der p II; for immunogenicity: Balb/c mice, subcutaneous immunization. It counts as cell-based, mouse. The procedure:
In order to determine experimentally whether this sequence homology could result in functional cross-reactivity between Der p II and myoglobin, mice were immunized by subcutaneous injections of FIS (SEQ ID NO. 2) or myoglobin.
Balb/c mice (H-2^d) were injected once in the footpad with 50 μl of a solution containing 100 μg of peptide or myoglobin emulsified in complete Freund's adjuvant. Ten days later, regional lymph nodes were retrieved, teased and extensively washed with sterile saline to recover cells. The cell suspension was then washed in RPMI buffer (Gibco). Pure CD4^+ T cell suspensions were obtained by negative selection using antibodies towards CD45R, CD11b and CD11c, all conjugated to magnetic beads according to the manufacturer's instructions (Miltenyi Biotech GmbH, Germany).
(§1) Functional cross-reactivity between Der p II, FIS and myoglobin was checked by in vitro proliferation assays. Thus, the T cell suspension was adjusted to 5×10^6 cells per ml in RPMI 1640 buffer supplemented with 2 mM glutamine, 100 U penicillin/ml, 100 jug streptomycin/ml, 5% heat-inactivated fetal calf serum and 5×10^−5 M 2-mercaptoethanol. One hundred μl of the T-cell-enriched fraction ([…]) was cultured in 100 μl of the above-described medium containing different concentrations of test peptide or myoglobin, and mitomycin-C treated syngeneic naive spleen cells as a source of APC (4×10^5 per well). Incubation was carried out into a humidified atmosphere of 5% CO2 in air for 4 days, and cells were pulsed during a final 18-h incubation with 1 μCi of [^3H] thymidine per well. The cells were then harvested onto glass fibres using a multiple-cell harvester. Radioactivity incorporated into proliferating cells was determined in a liquid scintillation counter. All tests were carried out in triplicate. The proliferative response was expressed as c.p.m.×10 after subtracting background value incorporation in the absence of antigen.
Background: Incorporation of labelled thymidine or its analogues reports DNA synthesis.

A further data set deals with mouse T cells. The experiment in a line: T cell proliferation assay in mice of additional H-2 haplotypes. It counts as cell-based. As to conditions: H-2b (C57BL/6), H-2k (C3H), H-2d (SJL) as printed; significant proliferative response for the three haplotypes.
For data set [1], the system named is T cells from peripheral blood. The experiment in a line: proliferation assay with T cells from peripheral blood of atopic individuals. It counts as cell-based. As to the method:
as §1
Moreover, T cells were prepared from the peripheral blood of atopic individuals. Thus, a 50-ml sample of peripheral blood was obtained in heparin. The blood sample was diluted vol/vol in RPMI 1640 and applied to a Ficoll-Hypaque density gradient. […]

This note sets out measurements from patent publication US20030129205A1, “Composition and method for the prevention and/or the treatment of allergy” (priority 2000, published 2003).

Turning to FISEAIIHVLHSR (Physeter catodon), in the data set with CD4+ T cells, the “proliferation of T cells from immunized mice” value was “proliferated to myoglobin and to Der p II”; the immunogenicity entry is on record as “immunogen”.
Take “SEPCIIHRGKP (Dermatophagoides) [SEQ ID NO. 1]”: the “recognition of T cell epitope in additional mouse H-2 haplotypes” value in the data set with mouse T cells is reported as “recognised in the context of three additional mouse H-2 haplotypes”. The “proportion of human subjects recognising the T cell epitope” value in data set [1] was “more than 85%”.

B1: myoglobin: Sheep myoglobin purchased from Sigma Chemicals; red pigment, oxygen reservoir of muscle cells (protein, UniProt P02190 2-154, looked up)
Myoglobin: GLSDGEWQLVLNAWGKVEADVAGHGQEVLIRLFTGHPETLEKFDKFKHLKTEAEMKASEDLKKHGNTVLTALGGILKKKGHHEAEVKHLAESHANKHKIPVKYLEFISDAIIHVLHAKHPSDFGADAQGAMSKALELFRNDMAAQYKVLGFQG
B1: in the data set on CD4+ T cells, the “proliferation of T cells from immunized mice” value is “proliferated to myoglobin and to Der p II”; the immunogenicity result is recorded as “immunogen”.
